ChEMBL document CHEMBL1141005, “Modulation of PPAR receptor subtype selectivity of the ligands: aliphatic chain vs aromatic ring as a spacer between pharmacophore and the lipophilic moiety” (Bioorg Med Chem Lett, 2008)
The source made the active and inactive calls. No cut-off for these calls is given here.

Key:
[1] = target: T1, Peroxisome proliferator-activated receptor delta (Homo sapiens) (UniProt Q03181); assay: Agonist activity at human PPARdelta transactivation expressed in human HePG2 cells up to 1 uM; type: functional, cell-based
T1 sequence (whole entry): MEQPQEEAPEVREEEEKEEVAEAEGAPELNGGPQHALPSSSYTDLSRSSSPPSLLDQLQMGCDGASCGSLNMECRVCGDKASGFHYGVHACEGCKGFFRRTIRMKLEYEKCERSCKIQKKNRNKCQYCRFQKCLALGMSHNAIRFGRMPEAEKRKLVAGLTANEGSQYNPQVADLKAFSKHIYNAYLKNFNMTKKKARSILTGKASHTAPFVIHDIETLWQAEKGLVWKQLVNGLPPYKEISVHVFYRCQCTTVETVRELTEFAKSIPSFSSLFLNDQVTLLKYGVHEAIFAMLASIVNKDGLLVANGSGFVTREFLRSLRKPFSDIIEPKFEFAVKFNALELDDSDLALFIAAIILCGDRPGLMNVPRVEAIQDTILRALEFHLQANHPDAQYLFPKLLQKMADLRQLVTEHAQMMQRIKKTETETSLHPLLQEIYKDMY

[2] = target: T2, Peroxisome proliferator-activated receptor alpha (Homo sapiens, UniProt Q07869); assay: Agonist activity at human PPARalpha transactivation expressed in human HePG2 cells; type: functional, cell-based
T2 sequence (Q07869 whole entry): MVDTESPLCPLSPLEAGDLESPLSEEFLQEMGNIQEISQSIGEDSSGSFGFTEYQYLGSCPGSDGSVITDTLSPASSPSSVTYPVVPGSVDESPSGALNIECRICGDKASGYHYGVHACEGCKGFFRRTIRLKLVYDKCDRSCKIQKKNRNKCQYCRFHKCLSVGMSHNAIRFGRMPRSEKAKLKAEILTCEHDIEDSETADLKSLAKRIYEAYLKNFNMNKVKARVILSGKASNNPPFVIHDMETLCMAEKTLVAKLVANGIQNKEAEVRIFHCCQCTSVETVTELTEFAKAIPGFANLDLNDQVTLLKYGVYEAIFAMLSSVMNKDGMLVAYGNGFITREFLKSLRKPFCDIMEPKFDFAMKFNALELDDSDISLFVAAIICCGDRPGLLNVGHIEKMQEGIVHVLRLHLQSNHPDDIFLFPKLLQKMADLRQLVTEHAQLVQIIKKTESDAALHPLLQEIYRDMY

HpG2 = assay: Selectivity ratio of EC50 for human PPARgamma receptor to human PPARalpha receptor expressed in human HpG2 cells; type: cell-based
[3] = target: T3, Peroxisome proliferator-activated receptor gamma (Homo sapiens, UniProt P37231); assay: Agonist activity at human PPARgamma transactivation expressed in human HePG2 cells
T3 sequence (P37231 whole entry): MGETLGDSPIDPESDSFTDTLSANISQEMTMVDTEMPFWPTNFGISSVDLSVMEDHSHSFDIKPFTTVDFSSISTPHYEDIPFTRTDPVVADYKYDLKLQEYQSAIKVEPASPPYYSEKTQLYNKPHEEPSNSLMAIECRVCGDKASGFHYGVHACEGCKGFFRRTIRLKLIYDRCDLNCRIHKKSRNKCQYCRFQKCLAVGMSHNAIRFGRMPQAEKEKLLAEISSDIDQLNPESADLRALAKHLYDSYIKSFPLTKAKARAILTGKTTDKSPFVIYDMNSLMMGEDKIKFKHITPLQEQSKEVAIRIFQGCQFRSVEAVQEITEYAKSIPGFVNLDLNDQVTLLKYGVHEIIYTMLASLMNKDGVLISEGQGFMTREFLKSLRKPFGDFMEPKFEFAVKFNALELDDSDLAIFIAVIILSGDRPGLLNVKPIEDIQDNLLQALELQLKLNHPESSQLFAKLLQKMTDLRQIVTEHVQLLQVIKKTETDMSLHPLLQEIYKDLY

[4] = target: T4, Peroxisome proliferator-activated receptor gamma (Homo sapiens) (UniProt P37231); assay: Agonist activity at human PPARgamma transactivation expressed in human HePG2 cells up to1 uM; type: functional, cell-based
T4 sequence (whole entry): T3 sequence (P37231 whole entry)

[5] = target: T5, Peroxisome proliferator-activated receptor alpha (Homo sapiens) (UniProt Q07869); assay: Agonist activity at human PPARalpha transactivation expressed in human HePG2 cells up to1 uM; type: functional, cell-based
T5 sequence (whole entry): T2 sequence (Q07869 whole entry)

SMILES | Activity [1] | EC50 [2] | Ratio EC50 (HpG2) | EC50 [3] | Activity [4] | Activity [5]
Cc1ccc(-c2nc(CCCCO/N=C(\CCC(=O)O)c3ccccc3)c(C)o2)cc1 | inactive | 0.0038 nM | 113000 | 430 nM |  | 
COc1ccc(OC(=O)N(CCCCCc2coc(-c3ccc(C)cc3)n2)CC(=O)O)cc1 | inactive | 44 nM | 12 | 560 nM |  | 
Cc1ccc(-c2nc(COc3ccc(C[C@H]4CO[C@@](C)(C(=O)O)OC4)cc3)c(C)o2)cc1 | inactive | 72 nM | 0.2 |  |  | 
Cc1ccc(-c2nc(CCCCCO/N=C(/CCC(=O)O)c3ccccc3)c(C)o2)cc1 | inactive | 2 nM | 15 | 31 nM |  | 
COc1ccc(OC(=O)N(CC(=O)O)Cc2ccc(OCCc3nc(-c4ccccc4)oc3C)cc2)cc1 [MURAGLITAZAR] | inactive | 150 nM |  |  |  | 
Cc1oc(-c2ccccc2)nc1COc1ccc(CO/N=C(\CCC(=O)O)c2ccccc2)cc1 [IMIGLITAZAR] | inactive | 8 nM |  |  |  | 
Cc1ccc(-c2nc(CCCCCCO/N=C(/CCC(=O)O)c3ccccc3)c(C)o2)cc1 | inactive | 0.1 nM | 1000 | 100 nM |  | 
Cc1ccc(-c2nc(CCCC[C@H]3CO[C@@](C)(C(=O)O)OC3)c(C)o2)cc1 | inactive |  |  | 6850 nM |  | 
COc1ccc(OC(=O)N(CCCCCCc2nc(-c3ccc(C)cc3)oc2C)CC(=O)O)cc1 | inactive | 34 nM | 13 | 450 nM |  | 
COc1ccc(OC(=O)N(CCCCc2nc(-c3ccc(C)cc3)oc2C)CC(=O)O)cc1 | inactive |  |  |  | inactive | inactive
